Experimental data published in ChEMBL document CHEMBL1201862, “PubChem BioAssay data set” (2004).
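These data come from cells grown in 96-well plates and exposed to compound for 48 hours at five concentrations. GI50: concentration for 50% inhibition of growth.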 The source made the active and inactive calls. Rule as the data show it: active = GI50 up to about 1.1 µM and inactive = higher.

Experiments:
Experiment in all cases: inhibition of tumour cell growth, NCI panel, 48 h
[1] = system: OVCAR-5
[2] = system: SK-MEL-2
[3] = system: MDA-MB-435
[4] = system: M14
[5] = system: RXF 393
[6] = system: SF-539
[7] = system: EKVX
[8] = system: HCT-116
[9] = system: HOP-62
[10] = system: T47D
[11] = system: Hs-578T
[12] = system: A549
[13] = system: DU-145
[14] = system: MCF7
[15] = system: MDA-N
[16] = system: OVCAR-4
[17] = system: SF-295
[18] = system: K562
[19] = system: U-251
[20] = system: MOLT-4
[21] = system: NCI/ADR-RES
[22] = system: HL-60
[23] = system: SR
[24] = system: SK-OV-3
[25] = system: HCC 2998
[26] = system: CCRF-CEM
[27] = system: SW-620
[28] = system: ACHN
[29] = system: UACC-62
[30] = system: IGROV-1
[31] = system: BT-549
[32] = system: SNB-19
[33] = system: Malme-3M
[34] = system: A498
[35] = system: HCT-15
[36] = system: NCI-H226
[37] = system: CAKI-1
[38] = system: PC-3
[39] = system: OVCAR-3
[40] = system: NCI-H460
[41] = system: UO-31
[42] = system: RPMI-8226
[43] = system: SF-268
[44] = system: NCI-H23
[45] = system: TK-10
[46] = system: COLO 205
[47] = system: SK-MEL-28
[48] = system: HOP-92
[49] = system: NCI-H522
[50] = system: SK-MEL-5
[51] = system: HT-29
[52] = system: UACC-257
[53] = system: KM12
[54] = system: LOX IMVI
[55] = system: SNB-75
[56] = system: OVCAR-8
[57] = system: MDA-MB-231
[58] = system: 786-0
[59] = system: SN12C

With `C[C@]12CC[C@H]3[C@@H](CC=C4C[C@@H](O)CC[C@@]43C)[C@@H]1C/C(=C/c1ccccc1)[C@@H]2O` the GI50 [1] was > 46.7 µM (inactive), the GI50 [2] was 20.9 µM (inactive) and the GI50 [3] was > 46 µM (inactive). For the same molecule, the GI50 [4] was > 45.1 µM (inactive), the GI50 [5] was > 25.1 µM (inactive) and the GI50 [6] was 30.7 µM (inactive). The GI50 [7] was 11.8 µM (inactive), the GI50 [8] was 8.53 µM (inactive) and the GI50 [9] was 19.7 µM (inactive). The GI50 [10] was > 22 µM (inactive), the GI50 [11] was 43 µM (inactive) and the GI50 [12] was > 35.6 µM (inactive). For the same molecule, the GI50 [13] was > 42.2 µM (inactive), the GI50 [14] was > 33 µM (inactive) and the GI50 [15] was 20.1 µM (inactive). The GI50 [16] was 19.2 µM (inactive), the GI50 [17] was > 36.7 µM (inactive) and the GI50 [18] was > 23.6 µM (inactive). The GI50 [19] was > 35.9 µM (inactive), the GI50 [20] was > 32.7 µM (inactive) and the GI50 [21] was 17.7 µM (inactive). For the same molecule, the GI50 [22] was > 43 µM (inactive), the GI50 [23] was 3.85 µM (inactive) and the GI50 [24] was 37.6 µM (inactive). For the same molecule, the GI50 [25] was 17.9 µM (inactive), the GI50 [26] was 14.6 µM (inactive) and the GI50 [27] was > 51.8 µM (inactive). For the same molecule, the GI50 [28] was 16.4 µM (inactive), the GI50 [29] was 17.8 µM (inactive) and the GI50 [30] was 11.8 µM (inactive). For the same molecule, the GI50 [31] was 24.1 µM (inactive), the GI50 [32] was 22.4 µM (inactive) and the GI50 [33] was 27.5 µM (inactive). For the same molecule, the GI50 [34] was 17.2 µM (inactive), the GI50 [35] was 19.7 µM and the GI50 [36] was 18.5 µM (inactive). For the same molecule, the GI50 [37] was 30.3 µM (inactive), the GI50 [38] was 18.9 µM (inactive) and the GI50 [39] was 16 µM (inactive). For the same molecule, the GI50 [40] was 20.1 µM (inactive), the GI50 [41] was 18.1 µM (inactive) and the GI50 [42] was > 32.1 µM (inactive). The GI50 [43] was 29.3 µM (inactive), the GI50 [44] was 15.9 µM (inactive) and the GI50 [45] was 27.8 µM (inactive). The GI50 [46] was > 53.6 µM (inactive), the GI50 [47] was > 44.6 µM (inactive) and the GI50 [48] was 32.4 µM (inactive). The GI50 [49] was 14.7 µM (inactive), the GI50 [50] was 12.1 µM (inactive) and the GI50 [51] was 28.3 µM (inactive). For the same molecule, the GI50 [52] was 15.6 µM (inactive), the GI50 [53] was 23 µM (inactive) and the GI50 [54] was > 33.6 µM (inactive). The GI50 [55] was > 41.9 µM (inactive), the GI50 [56] was 20.9 µM (inactive) and the GI50 [57] was 43.1 µM (inactive). For the same molecule, the GI50 [58] was 22.1 µM (inactive).
With `CCOC(=O)C1=C(C)N(Cc2ccccc2)C2(O)C=CC(O)=C3C(=O)c4ccccc4C(=O)C312` (configuration not stated) the GI50 [1] was 15.8 µM (inactive), the GI50 [2] was 13.9 µM (inactive) and the GI50 [3] was 8.93 µM (inactive). The GI50 [4] was 4.99 µM (inactive), the GI50 [5] was 3.37 µM (inactive) and the GI50 [6] was 16.3 µM (inactive). The GI50 [7] was 16.4 µM (inactive), the GI50 [8] was 10.2 µM (inactive) and the GI50 [9] was 14.2 µM (inactive). For the same molecule, the GI50 [10] was 18.9 µM (inactive), the GI50 [11] was 22.4 µM (inactive) and the GI50 [12] was 15.3 µM (inactive). The GI50 [13] was 16.5 µM (inactive), the GI50 [14] was 0.128 µM (active) and the GI50 [15] was 6.37 µM (inactive). The GI50 [16] was 15.4 µM (inactive), the GI50 [17] was 10.3 µM (inactive) and the GI50 [18] was 15.1 µM (inactive). The GI50 [19] was 16.6 µM (inactive), the GI50 [20] was 8.15 µM (inactive) and the GI50 [59] was 13.5 µM (inactive). For the same molecule, the GI50 [21] was 0.182 µM (active), the GI50 [22] was 15.1 µM (inactive) and the GI50 [23] was 4.37 µM (inactive). The GI50 [24] was 29.6 µM (inactive), the GI50 [25] was 17 µM (inactive) and the GI50 [26] was 8.61 µM (inactive). For the same molecule, the GI50 [27] was 13.6 µM (inactive), the GI50 [28] was 17.4 µM (inactive) and the GI50 [29] was 14.7 µM (inactive). The GI50 [30] was 4.16 µM (inactive), the GI50 [31] was 0.541 µM (active) and the GI50 [32] was 26.5 µM (inactive). The GI50 [33] was 2.43 µM (inactive), the GI50 [34] was 23.6 µM (inactive) and the GI50 [35] was 3.82 µM. The GI50 [36] was 20.6 µM (inactive), the GI50 [37] was 12.1 µM (inactive) and the GI50 [38] was 19.2 µM (inactive). The GI50 [39] was 7.67 µM (inactive), the GI50 [40] was 11.3 µM (inactive) and the GI50 [41] was 9.73 µM (inactive). For the same molecule, the GI50 [42] was 9.42 µM (inactive), the GI50 [43] was 10.1 µM (inactive) and the GI50 [44] was 8.61 µM (inactive). The GI50 [45] was 18.5 µM (inactive), the GI50 [46] was 16.8 µM (inactive) and the GI50 [47] was 28.6 µM (inactive). The GI50 [48] was 17.2 µM (inactive), the GI50 [49] was 11.9 µM (inactive) and the GI50 [50] was 10.3 µM (inactive). For the same molecule, the GI50 [51] was 31.5 µM (inactive), the GI50 [52] was 17.2 µM (inactive) and the GI50 [53] was 12.1 µM (inactive). For the same molecule, the GI50 [54] was 14.1 µM (inactive), the GI50 [55] was 22.1 µM (inactive) and the GI50 [56] was 19.1 µM (inactive). The GI50 [57] was 15.3 µM (inactive) and the GI50 [58] was 13.4 µM (inactive).
